Two compounds from patent publication US20060166905A1, “Aivlosin for the treatment of disease due to brachyspira pilosicoli or ornithobacterium rhinotracheale” (ECO Animal Health, LTD., priority 2003, published 2006) can be followed below.

Converted amounts (≈) assume the structure as drawn. Read-outs that look alike come from different tables or passages of the source. A value given as a limit tells only on which side of the number the result lay.

Assay type in all cases: cell-based
Assay [1] has as its system Brachyspira hyodysenteriae (P18A). The assay is described as follows: MIC by antibiotic dilution method in agar plates, control strain. The settings on record: Control P1 8A. The protocol: (§1) The MIC of acetyl isovaleryltylosin was determined against 5 field strains of Brachyspira pilosicoli isolated from different pig populations in various parts of England using an antibiotic dilution method. Four replicates of 0.2 ml of each isolate were inoculated into agar plates prepared with antibiotic concentrations from 0.78 to 200 μg/ml. A strain of Brachyspira hyodysenteriae (P18A), for which the MIC for acetyl isovaleryltylosin was already known, was used as a control.

For assay [2], the system named is Ornithobacterium rhinotracheale. The assay is described as follows: MIC test, twofold dilution in serum broth. The settings on record: for MIC: Ornithobacterium rhinotracheale, read-out: concentration that inhibited the growth (MIC). How it is done:
Testing of Aivlosin and Tilmicosin (Pulmotil) Against Ornithobacterium rhinotracheale Using the MIC (Minimum Inhibitory Concentration) Test
The following antibiotics were each tested against four isolates of Ornithobacterium rhinotracheale (OR):
The antibiotics were tested against the following isolates of OR:
The concentration needed of each antibiotic was calculated according to its active ingredient.
The four freeze dried bacterial isolates of Ornithobacterium rhinotracheale were reconstituted, inoculated into 10 ml serum broth (supplied by OBP, code 655) and incubated at 37° C. for 48 hours. After incubation the optical density (OD) of each culture was read at 540 nm. To verify purity the cultures were plated out onto Blood Tryptose agar plates, incubated at 37° C., using 5 % CO2 conditions, for 48 hours after which the plates were examined for any contaminants.
12 tubes per isolate for each of the antibiotics were placed into a test tube rack. 2 ml serum broth was dispensed into each of the tubes. 2 ml of the antibiotic were then added to the first tube in the respective row and a twofold dilution were made (32 μg/ml-0.0625 μg/ml). 20 μl of the bacteria was then added to 11 of the tubes. The 12th tube, i.e. negative control received neither antibiotic nor bacteria. The 11th tube i.e. positive control only received 20 μl bacteria. All the tubes were then incubated at 37° C. and the MIC read after 48 hours incubation

Assay [3] relates to Brachyspira pilosicoli. The assay is described as follows: MIC of aivlosin by antibiotic dilution method in agar plates. The protocol: Determination of Minimum Inhibitory Concentration (MIC) of Aivlosin Against Brachyspira pilosicoli
as §1

Where [4] appears, read: even at relatively low concentrations.

Take `CCC1OC(=O)CC(OC(C)=O)C(C)C(OC2OC(C)C(OC3CC(C)(O)C(OC(=O)CC(C)C)C(C)O3)C(N(C)C)C2O)C(CC=O)CC(C)C(=O)C=CC(C)=CC1COC1OC(C)C(O)C(OC)C1OC` (stereo not drawn) [Aivlosin, 3-O-acetyl-4″-O-isovaleryl-tylosin]: the MIC in assay [1] is 12.5 µg/mL (≈ 12 µM); in assay [3] (field strain 0P0204-10-97(4)) it was below 0.781 µg/mL; in assay [3] (field strain P0098-10-97), 25.0 µg/mL; in assay [3] (field strain P0352-10-98), 6.25 µg/mL; in assay [3] (field strain P0525-01-98) it was 6.25 µg/mL; in assay [3] (field strain P0730-09-97) it was 12.5 µg/mL. The “preventing the growth of Ornithobacterium rhinotracheale” value in assay [2] (setting [4]) was “particularly effective”. Further, the “concentration that inhibited the growth (MIC)” value in assay [2] (the isolates tested (four)) worked out at 0.5 µg/mL. For the same compound, the “preventing the growth of Brachyspira pilosicoli” value in assay [3] (setting [4]) is recorded as “particularly effective”. In addition, the MIC range in assay [3] (field strains, with the exception of isolate P0204-10-97 (4)) fell in the range of 6.25 to 25.0 µg/mL.

In the case of `CC[C@H]1OC(=O)C[C@@H](O)[C@H](C)[C@@H](O[C@@H]2O[C@H](C)[C@@H](O)[C@H](N(C)C)[C@H]2O)[C@@H](CCN2C[C@H](C)C[C@H](C)C2)C[C@@H](C)C(=O)/C=C/C(C)=C/[C@@H]1CO[C@@H]1O[C@H](C)[C@@H](O)[C@@H](OC)[C@H]1OC` [Pulmotil, Tilmicosin], the MIC in assay [2] (the fourth isolate) was determined as 8 µg/mL (≈ 9.2 µM); in assay [2] (three of the isolates tested) it was 4 µg/mL (≈ 4.6 µM).
